One experiment relates to sAPPβ release in SH-SY5Y cells. The experiment in a line: sAPPβ release assay. It is filed as cell-based. The note with it: Homo sapiens, SH-SY5Y, 17 h, compounds incubated 17 h, MSD detection. The procedure: Thaw cells and seed at a conc. of around 10000 cells/well in DMEM/F-12 with Glutamax, 10% FCS and 1% non-essential amino acids to a 384-well tissue culture treated plate, 100 μL cell susp/well. […] The cell medium was removed, followed by addition of 30 μL compound diluted in DMEM/F-12 with Glutamax, 10% FCS, 1% non-essential amino acids and 1% PeSt to a final conc. of 1% DMSO. The compounds were incubated with the cells for 17 h (overnight) at 37° C., 5% CO2. Meso Scale Discovery (MSD) plates were used for the detection of sAPPβ release. MSD sAPPβ plates were blocked in 1% BSA in Tris wash buffer (40 μL/well) for 1 h on shake at r.t. and washed 1 time in Tris wash buffer (40 μL/well). 20 μL of medium was transferred to the pre-blocked and washed MSD sAPPβ microplates, and the cell plates were further used in an ATP assay to measure cytotoxicity. The MSD plates were incubated with shaking at r.t. for 2 h and the media discarded. 10 μL detection antibody was added (1 nM) per well followed by incubation with shaking at r.t. for 2 h and then discarded. 40 μL Read Buffer was added per well and the plates were read in a SECTOR Imager.
`CO[C@H]1CC[C@]2(CC1)Cc1ccc(-c3cnc4[nH]cc(C)c4c3)cc1C21N=C(C)C(N)=N1` (some centres unmarked) [Example 116, (1r,4r)-4-Methoxy-5″-methyl-6′-(3-methyl-1H-pyrrolo[2,3-b]pyridin-5-yl)-3′H-dispiro[cyclohexane-1,2′-indene-1′,2″-imidazol]-4″-amine]: the IC50 – broadly, the midpoint of a concentration-inhibition curve – was determined as 12 nM.
The same measure, in the same setting: the value for `CO[C@H]1CC[C@]2(CC1)Cc1ccc(-c3cc(F)cc(F)c3)cc1[C@@]21N=C(C)C(N)=N1` [Example 88, (1r,1′R,4R)-6′-(3,5-difluorophenyl)-4-methoxy-5″-methyl-3′H-dispiro[cyclohexane-1,2′-indene-1′,2″-imidazol]-4″-amine] was 4.8 nM; that for `CCC1=NC2(N=C1N)c1cc(-c3cncc(Cl)c3)ccc1C[C@]21CC[C@@H](OC)CC1` (some centres unmarked) [Example 65, (1r,4r)-6′-(5-Chloropyridin-3-yl)-5-ethyl-4-methoxy-3′H-dispiro[cyclohexane-1,2′-indene-1′,2″-imidazol]-4″-amine] was 3.4 nM.
For `[2H]C([2H])([2H])C#Cc1cncc(-c2ccc3c(c2)[C@@]2(N=C(C)C(N)=N2)[C@]2(CC[C@H](OC)CC2)C3)c1` [Example 114, (1r,1′R,4R)-4-Methoxy-5″-methyl-6′-{5-[(^2H3)prop-1-yn-1-yl]pyridin-3-yl}-3′H-dispiro[cyclohexane-1,2′-indene-1′,2″-imidazol]-4″-amine], the IC50 came to 0.14 nM.
On the same count and under the same terms, the value for `CO[C@H]1CC[C@]2(CC1)Cc1ccc(-c3cncc(COCC(F)(F)F)c3)cc1C21N=C(C)C(N)=N1` (some centres unmarked) [Example 82, (1r,4r)-4-Methoxy-5″-methyl-6′-{5-[(2,2,2-trifluoroethoxy)methyl]pyridin-3-yl}-3′H-dispiro[cyclohexane-1,2′-indene-1′,2″-imidazol]-4″-amine] was 36 nM; that for `CO[C@H]1CC[C@]2(CC1)Cc1ccc(OCCC(F)(F)F)cc1C21N=C(C)C(N)=N1` (some centres unmarked) [Example 20u, (1r,4r)-4-methoxy-5″-methyl-6′-(3,3,3-trifluoropropoxy)-3′H-dispiro[cyclohexane-1,2′-indene-1′,2″-imidazol]-4″-amine] was 0.63 nM; that for `CO[C@H]1CC[C@]2(CC1)Cc1ccc(-c3cccc(Cl)c3Cl)cc1[C@@]21N=C(C)C(N)=N1` [Example 104, (1r,1′R,4R)-6′-(2,3-dichlorophenyl)-4-methoxy-5″-methyl-3′H-dispiro[cyclohexane-1,2′-indene-1′,2″-imidazol]-4″-amine] was 34 nM.
For the molecule `CC#Cc1cncc(-c2ccc3c(c2)C2(N=C(C)C(N)=N2)[C@]2(CC[C@H](OCC)CC2)C3)c1` (some centres unmarked) [Example 135, (1r,4r)-4-Ethoxy-5″-methyl-6′-[5-(prop-1-yn-1-yl)pyridin-3-yl]-3′H-dispiro[cyclohexane-1,2′-indene-1′,2″-imidazol]-4″-amine], the 50% inhibitory concentration (IC50) is 0.85 nM.
Still for that read-out and setting: the same measure for `CC#Cc1cncc(-c2ccc3c(c2)C2(N=C(N)C(CC)=N2)[C@]2(CC[C@H](OC)CC2)C3)c1` (some centres unmarked) [Example 67, (1r,4r)-5″-Ethyl-4-methoxy-6′-[5-(prop-1-yn-1-yl)pyridin-3-yl]-3′H-dispiro[cyclohexane-1,2′-indene-1′,2″-imidazol]-4″-amine]: 0.81 nM.
On to `CO[C@H]1CC[C@]2(CC1)Cc1ccc(-c3cc(C)cc(C#N)c3)cc1C21N=C(C)C(N)=N1` (some centres unmarked) [Example 74, 3-[(1r,4r)-4″-Amino-4-methoxy-5″-methyl-3′H-dispiro[cyclohexane-1,2′-indene-1′,2″-imidazol]-6′-yl]-5-methylbenzonitrile], for which the IC50 came to 2.1 nM.
In turn, `CO[C@H]1CC[C@]2(CC1)Cc1ccc(-c3cc(Cl)cnc3C)cc1C21N=C(C)C(N)=N1` (some centres unmarked) [Example 62, (1r,4r)-6′-(5-Chloro-2-methylpyridin-3-yl)-4-methoxy-5″-methyl-3′H-dispiro[cyclohexane-1,2′-indene-1′,2″-imidazol]-4″-amine] yielded an IC50 of 8.6 nM.
On the same count and under the same terms, the same measure for `CCO[C@H]1CC[C@]2(CC1)Cc1ccc(-c3cncc(C(F)(F)F)c3)cc1C21N=C(C)C(N)=N1` (some centres unmarked) [Example 131]: 24 nM.
Same read-out and setting: the same measure for `CC1=NC2(N=C1N)c1cc(-c3cncc(Cl)c3)ccc1CC21CCC1` (centres unmarked) [Example 55, 6′-(5-Chloropyridin-3-yl)-5″-methyl-3′H-dispiro[cyclobutane-1,2′-indene-1′,2″-imidazol]-4″-amine]: 118 nM; for `CO[C@H]1CC[C@]2(CC1)Cc1ccc(NC(=O)c3ccc(Cl)cn3)cc1C21N=C(C)C(N)=N1` (some centres unmarked) [Example 20q, N-[(1r,4r)-4″-Amino-4-methoxy-5″-methyl-3′H-dispiro[cyclohexane-1,2′-indene-1′,2″-imidazol]-6′-yl]-5-chloropyridine-2-carboxamide]: 3.8 nM; for `CO[C@H]1CC[C@]2(CC1)Cc1ccc(C#N)cc1C21N=C(C)C(N)=N1` (some centres unmarked) [Example 79, (1r,4r)-4″-Amino-4-methoxy-5″-methyl-3′H-dispiro[cyclohexane-1,2′-indene-1′,2″-imidazole]-6′-carbonitrile]: 171 nM.
Same read-out and setting: the same measure for `CC1=NC2(N=C1N)c1cc(-c3cc(F)cc(F)c3)ccc1C[C@]21CC[C@@H](OC(F)F)CC1` (some centres unmarked) [Example 109]: 28 nM.

Staying with this experiment, now noted: Homo sapiens, compounds incubated 17 h, MSD detection.
In the case of `CO[C@H]1CC[C@]2(CC1)Cc1ccc(OCCCF)cc1C21N=C(C)C(N)=N1` (some centres unmarked) [Example 20v], 1.2 nM corresponded to half-maximal inhibition (IC50).
`CC1=NC2(N=C1N)c1cc(-c3cc(Cl)cc(C#N)c3)ccc1CC21CC1` (centres unmarked) [Example 78, 3-(4″-Amino-5″-methyl-3′H-dispiro[cyclopropane-1,2′-indene-1′,2″-imidazol]-6′-yl)-5-chlorobenzonitrile]: it took 56 nM to reach half-maximal inhibition (IC50).
Still for that read-out and setting: the same measure for `CC#CCOc1cnc(C(=O)Nc2ccc3c(c2)C2(CCO3)N=C(C)C(N)=N2)cn1` (centres unmarked) [Example 13e, N-(4′-Amino-5′-methylspiro[chroman-4,2′-imidazole]-6-yl)-5-(but-2-ynyloxy)pyrazine-2-carboxamide]: 106 nM; for `COCc1cc(C#N)cc(-c2ccc3c(c2)C2(N=C(C)C(N)=N2)[C@]2(CC[C@H](OC)CC2)C3)c1` (some centres unmarked) [Example 96, 3-[(1r,4r)-4″-Amino-4-methoxy-5″-methyl-3′H-dispiro[cyclohexane-1,2′-indene-1′,2″-imidazol]-6′-yl]-5-(methoxymethyl)benzonitrile]: 3.5 nM.
Still for that read-out and setting: the value for `CC1=NC2(N=C1N)c1cc(-c3cc(Cl)cc(C#N)c3)ccc1C[C@]21CC[C@@H](OC(F)F)CC1` (some centres unmarked) [Example 108, 3-[(1r,4r)-4″-Amino-4-(difluoromethoxy)-5″-methyl-3′H-dispiro[cyclohexane-1,2′-indene-1′,2″-imidazol]-6′-yl]-5-chlorobenzonitrile] was 1.8 nM; that for `CCO[C@H]1CC[C@]2(CC1)Cc1ccc(-c3cc(C#N)cc(C(F)F)c3)cc1C21N=C(C)C(N)=N1` (some centres unmarked) [Example 134, 3-[(1r,4r)-4″-Amino-4-ethoxy-5″-methyl-3′H-dispiro[cyclohexane-1,2′-indene-1′,2″-imidazol]-6′-yl]-5-(difluoromethyl)benzonitrile] was 7.7 nM.
The same measure, in the same setting: the value for `CO[C@H]1CC[C@]2(CC1)Cc1ccc(NC(=O)c3ncc(Cl)cc3C)cc1C21N=C(C)C(N)=N1` (some centres unmarked) [Example 20w, N-[(1r,4r)-4″-Amino-4-methoxy-5″-methyl-3′H-dispiro[cyclohexane-1,2′-indene-1′,2″-imidazol]-6′-yl]-5-chloro-3-methylpyridine-2-carboxamide] was 5.7 nM; that for `CC#Cc1cc(-c2ccc3c(c2)C2(N=C(C)C(N)=N2)[C@]2(CC[C@H](OC)CC2)C3)ccn1` (some centres unmarked) [Example 20y, (1r,4r)-4-Methoxy-5″-methyl-6′-[2-(prop-1-yn-1-yl)pyridin-4-yl]-3′H-dispiro[cyclohexane-1,2′-indene-1′,2″-imidazol]-4″-amine] was 1.2 nM; that for `CC1=NC2(N=C1N)c1cc(-c3ccc(F)c(Cl)c3)ccc1CC21CCOCC1` (centres unmarked) [Example 26c, 6′-(3-Chloro-4-fluorophenyl)-5-methyl-2″,3″,5″,6″-tetrahydro-3′H-dispiro[imidazole-2,1′-indene-2′,4″-pyran]-4-amine] was 140 nM.
`COc1cc(-c2ccc3c(c2)C2(N=C(C)C(N)=N2)[C@]2(CC[C@H](OC(F)F)CC2)C3)cc(C#N)c1F` (some centres unmarked) [Example 110, 5-[(1r,4r)-4″-Amino-4-(difluoromethoxy)-5″-methyl-3′H-dispiro[cyclohexane-1,2′-indene-1′,2″-imidazol]-6′-yl]-2-fluoro-3-methoxybenzonitrile] came in with a half-maximal inhibitory concentration (IC50) of 4 nM.
`CCC1=NC2(N=C1N)c1cc(-c3cncc(C#N)c3)ccc1C[C@]21CC[C@@H](OC)CC1` (some centres unmarked) [Example 69, 5-[(1r,4r)-4″-Amino-5″-ethyl-4-methoxy-3′H-dispiro[cyclohexane-1,2′-indene-1′,2″-imidazol]-6′-yl]pyridine-3-carbonitrile] yielded an IC50 of 10 nM.
Same read-out and setting: the same measure for `CC#Cc1cncc(-c2ccc3c(c2)C2(N=C(C)C(N)=N2)[C@]2(CC[C@H](OC)CC2)C3)c1C` (some centres unmarked) [Example 63, (1r,4r)-4-Methoxy-5″-methyl-6′-[4-methyl-5-(prop-1-yn-1-yl)pyridin-3-yl]-3′H-dispiro[cyclohexane-1,2′-indene-1′,2″-imidazol]-4″-amine]: 29 nM; for `CC1=NC2(CCOc3ccc(-c4cncc(Cl)c4)cc32)N=C1N` (centres unmarked) [Example 2, 6-(5-Chloropyridin-3-yl)-5′-methylspiro[chroman-4,2′-imidazol]-4′-amine]: 941 nM.
